{
  "source": "patent US20160199407A1",
  "about": "“HALIDES IN THE TREATMENT OF PATHOGENIC INFECTION” (THE UNIVERSITY OF IOWA RESEARCH FOUNDATION, priority 2008, published 2016)",
  "key": {"S. aureus": {"system": "S. aureus", "test": "S. aureus killing on airway epithelial cell cultures with LPO and I^− or SCN^−", "type": "cell-based"}, "H. influenzae": {"system": "H. influenzae", "test": "H. influenzae (NTHi) killing on airway epithelial cell cultures with LPO and I^− or SCN^−", "type": "cell-based"}, "M. haemolytica": {"system": "M. haemolytica", "test": "M. haemolytica killing by AEC cultures", "type": "cell-based"}, "human AEC": {"system": "human AEC", "test": "HOI generation by AEC, fluorescein absorbance at 508 nm", "type": "cell-based", "conditions": "apical ATP (100 μM), I^− (400 μM), LPO (9 μg/ml), fluorescein (16 μM), 3 hours"}, "primary airway epithelia": {"system": "primary airway epithelia", "conditions": "cited from earlier work"}, "SARS-CoV (Urbani strain)": {"system": "SARS-CoV (Urbani strain)", "type": "cell-based", "conditions": "human airway epithelia, 5 MOI, ATP (100 μM), 6.5 mg/mL LPO, NaI, pH 6.5, 24 hr"}, "[1]": {"system": "influenza A (H1N1, A/PR/8/34)", "type": "cell-based", "conditions": "pH 6.5"}, "eukaryotic cells": {"system": "eukaryotic cells", "conditions": "HOI: at bactericidal concentrations; cited from earlier work"}, "[2]": {"system": "adenovirus expressing eGFP", "test": "In situ inactivation of adenovirus on AEC", "conditions": "porcine airway epithelia, 50 MOI, ATP (100 μM), 6.5 mg/mL LPO, NaI, PBS pH 6.5"}, "adenovirus (serotype 5)": {"system": "adenovirus (serotype 5)", "test": "In vitro (cell free) inactivation of adenovirus expressing eGFP", "conditions": "5 min exposure, readout 24 hr later"}, "A2 strain of RSV": {"system": "A2 strain of RSV", "test": "Cell free exposure of RSV to Duox/LPO system components, then titering", "conditions": "5 min"}, "[3]": {"test": "I^− accumulation in airway surface fluid after oral KI intake"}},
  "note": "Entries after “also recorded” stand apart in the source; their conditions may differ. Where two headings read alike, the source gives them in different places.",
  "data": [
    {"molecule": "I", "note": "[I^−, iodide]", "values": [
      {"measurement": "Bacterial survival (S. aureus)", "setting": "S. aureus; 50 and 200 μM I^−, LPO (7 μg/ml), epithelial cells, 1000 CFU, 3 hrs", "value": "No surviving bacteria"},
      {"measurement": "I^− concentration supporting complete elimination of S. aureus", "setting": "S. aureus; AEC cultures, data not shown", "value": 50, "unit": "µM"},
      {"measurement": "I^− concentration at which numbers of surviving S. aureus were lower", "setting": "S. aureus; LPO, airway epithelia, 3 hr", "value": "≥ 10", "unit": "µM"},
      {"measurement": "I^− concentration giving complete eradication of bacteria (S. aureus)", "setting": "S. aureus; LPO, airway epithelia, 3 hr", "value": "50 to 200", "unit": "µM"},
      {"measurement": "Bacterial survival (H. influenzae)", "setting": "H. influenzae; 200 and 500 μM I−, LPO (7 μg/ml), epithelial cells, 1000 CFU, 3 hrs", "value": "No surviving bacteria"},
      {"measurement": "I^− concentration sufficient to support strong NTHi-killing activity of AEC", "setting": "H. influenzae; LPO present, catalase absent, data not shown", "value": "≤ 50", "unit": "µM"},
      {"measurement": "I^− concentration at which numbers of surviving H. influenzae were lower", "setting": "H. influenzae; LPO, airway epithelia, 3 hr", "value": "≥ 10", "unit": "µM"},
      {"measurement": "I^− concentration giving complete eradication of bacteria (H. influenzae)", "setting": "H. influenzae; LPO, airway epithelia, 3 hr", "value": "50 to 200", "unit": "µM"},
      {"measurement": "Elimination of M. haemolytica in the presence of I^− as compared to SCN^−", "setting": "M. haemolytica", "value": "more effective"},
      {"measurement": "Susceptibility of M. haemolytica to supported antibacterial activity", "setting": "M. haemolytica", "value": "susceptible"},
      {"measurement": "Bacterial survival (M. haemolytica)", "setting": "M. haemolytica; LPO and 250 μM I^−, 3 hours", "value": "No surviving bacteria"},
      {"measurement": "HOI production by AEC", "setting": "human AEC", "value": "can support HOI production"},
      {"measurement": "Basolateral concentration above which primary airway epithelia secrete the anion", "setting": "primary airway epithelia", "value": "higher than 1 μM"}
    ]},
    {"molecule": "OI", "note": "[HOI]", "values": [
      {"measurement": "Efficiency of HOI producing system against S. aureus versus OSCN^− producing mechanism", "setting": "S. aureus; airway epithelia, LPO", "value": "more efficient"},
      {"measurement": "Bactericidal activity against H. influenzae", "setting": "H. influenzae; airway epithelia, LPO", "value": "strong bactericidal activity"},
      {"measurement": "SARS-CoV inactivation (N gene product immunoreactivity)", "setting": "SARS-CoV (Urbani strain)", "value": "sufficient H2O2 to support; also recorded: marked reduction"},
      {"measurement": "Influenza viral antigen (NS1)", "setting": "[1]", "value": "dose dependent decrease"},
      {"measurement": "Toxicity to eukaryotic cells", "setting": "eukaryotic cells", "value": "not toxic"},
      {"measurement": "Adenovirus inactivation on airway epithelia (GFP expression)", "setting": "[2]", "value": "sufficient H2O2 to support; also recorded: dose dependent decrease"},
      {"measurement": "Adenovirus inactivation (eGFP expression in transduced A549 cells)", "setting": "adenovirus (serotype 5)", "value": "inactivated; also recorded: dose-dependent decrease"},
      {"measurement": "Solution pH at which antiviral effect against RSV was most marked", "setting": "A2 strain of RSV", "value": "≤ 6.5"},
      {"measurement": "Drop in RSV titer", "setting": "A2 strain of RSV; PBS", "value": 5, "unit": "log"}
    ]},
    {"molecule": "[I-].[K+]", "note": "[KI, potassium iodide]", "values": [
      {"measurement": "Airway surface fluid I^− concentration relative to serum I^− level", "setting": "[3]; 8 hours after oral 130 mg KI", "value": "more than 50 fold"},
      {"measurement": "Sufficiency to achieve the airway surface fluid I^− level (10-50 μM) necessary for HOI-mediated elimination of bacteria and viruses", "setting": "[3]; oral 130 mg KI", "value": "more than sufficient"},
      {"measurement": "Time the high airway surface fluid I^− concentration was maintained", "setting": "[3]; oral 130 mg KI", "value": "several hours"},
      {"measurement": "I^− concentration in airway surface fluid", "setting": "[3]; two hours after oral KI tablet (130 mg), human subject", "value": "~200", "unit": "µM"}
    ]},
    {"molecule": "N#CS", "note": "[SCN^−, thiocyanate, reference compound]", "values": [
      {"measurement": "SCN^− concentration necessary for killing of S. aureus", "setting": "S. aureus; AEC cultures, data not shown", "value": "> 120", "unit": "µM"},
      {"measurement": "SCN− in place of I^− in the oxidative mechanism eliminating H. influenzae", "setting": "H. influenzae; LPO, epithelial cells, 3 hrs, 500 μM SCN^− controls", "value": "cannot replace I^−"},
      {"measurement": "Susceptibility of M. haemolytica to supported antibacterial activity", "setting": "M. haemolytica", "value": "susceptible"},
      {"measurement": "Killing of M. haemolytica", "setting": "M. haemolytica; 250 μM SCN^−, 3 hours", "value": "supported killing"},
      {"measurement": "Rate of apical-to-basolateral leakage", "setting": "primary airway epithelia; Moskwa, 2007", "value": "< 10", "unit": "%/hour"},
      {"measurement": "Basolateral concentration above which primary airway epithelia secrete the anion", "setting": "primary airway epithelia; published data", "value": "> 5", "unit": "µM"}
    ]},
    {"molecule": "N#CSO", "note": "[OSCN^−, hypothiocyanite, reference compound]", "values": [
      {"measurement": "Susceptibility of NTHi", "setting": "H. influenzae; AEC cultures, data not shown", "value": "resistant"},
      {"measurement": "Bactericidal activity against H. influenzae", "setting": "H. influenzae; airway epithelia, LPO", "value": "ineffective"},
      {"measurement": "Influenza viral antigen (NS1)", "setting": "[1]", "value": "dose dependent decrease"},
      {"measurement": "Toxicity to eukaryotic cells", "setting": "eukaryotic cells", "value": "not toxic"},
      {"measurement": "Virucidal effects on RSV", "setting": "A2 strain of RSV; PBS", "value": "minimal virucidal effects"}
    ]}
  ]
}
